Assay results as given in patent US11116739B2, “Fixed dose combinations and formulations comprising ETC1002 and one or more statins and methods of treating or reducing cardiovascular disease” (Esperion Therapeutics, Inc., priority 2015, dated 2021).
Like-named read-outs stand apart in the source and are kept apart here. Blank lines part the entries; values can stand above or below the compound they belong to.

Key:
[1] = clinical pharmacokinetics of ETC-1002; format: in vivo, human
Procedure: (§1) The entire clinical program for ETC-1002 (conducted between 2009 and 2015) has included approximately 1000 subjects and patients, with approximately 700 receiving ETC-1002 doses ranging from 2.5 up to 240 mg/day (multiple doses) for up to 12 weeks. There are 15 completed clinical studies (nine Phase 1 and six Phase 2), and integrated data summaries are based on the 6 completed Phase 2 studies.

[2] = Study 1002-012: effect of steady-state ETC-1002 on single-dose PK of simvastatin, pravastatin, rosuvastatin
Procedure: Serial PK blood samples were collected through the morning of Day −3. Starting on Day 1, all subjects received oral ETC-1002, 240 mg, once daily for 16 days. On the morning of Day 12, in addition to ETC-1002, subjects received a single dose of a statin drug, based on their cohort assignment; serial PK blood samples were collected.

[3] = system: mice, rats, and monkeys; assay: oral toxicology studies up to 12 months; format: in vivo
Excerpt: In toxicology studies, evaluations of ETC-1002 in mice, rats, and monkeys in oral studies up to 12 months in duration have been completed. […] Routine clinical laboratory parameters will continue to be monitored carefully in clinical trials.

[4] = pivotal 12-month monkey study; settings: in vivo, oral, read-out: NOAEL dose
Procedure: (§2) In the pivotal 6-month rat study, the no-observed-adverse-effect level (NOAEL) dose was 30 mg/kg/day in male and female rats and the corresponding area under the curve during 24 hours (AUC0-24) values of the sum of ETC-1002 and ESP15228 were up to 528 μg·hr/mL. In the pivotal 12-month monkey study, the NOAEL dose was 60 mg/kg/day and the corresponding AUC0-24 value of the sum of ETC-1002 and ESP15228 was up to 4478 μg·hr/mL.

[5] = Study 1002-007: effect of ETC-1002 on the PK of atorvastatin
Procedure: All patients started ETC-1002 at a dose of 60 mg/day, which was up-titrated every 2 weeks to 120 mg/day, then 180 mg/day, then 240 mg/day.

[6] = safety pharmacology studies; settings: over the range of exposures intended for clinical studies
[7] = food-effect/bioequivalence study; set-up: species or system human; settings: in vivo
[8] = pivotal 6-month rat study; settings: both sexes, in vivo, oral, male and female rats, read-out: no-observed-adverse-effect level (NOAEL) dose
Procedure: as §2

[9] = system: patients; assay: integrated analysis of six Phase 2 studies (efficacy); format: in vivo, human
Procedure: as §1

[10] = system: patients; assay: 6 integrated Phase 2 studies (safety, TEAEs, SAEs); format: in vivo, human
Procedure: as §1
The greatest number of patients experiencing at least 1 TEAE among ETC-1002-treated groups occurred in the ETC-1002 40-mg dose group (75.6%); this frequency was similar to the frequency of patients experiencing at least 1 TEAE in the placebo group (74.2%).

[11] = drug interaction with metformin or Ortho-Novum 1/35; format: in vivo, human
[12] = system: major cytochrome P450 (CYP) enzymes; assay: in vitro CYP inhibition/induction studies; format: in vitro ADME; settings: at clinically relevant plasma concentrations
[13] = system: rodent models of dyslipidemia; assay: primary pharmacology in rodent models of dyslipidemia; format: in vivo
Procedure: The primary pharmacology of ETC-1002 was evaluated in several well-characterized and predictive rodent models of dyslipidemia. In these studies, ETC-1002 lowered LDL-C and triglycerides (TGs) and increased high-density lipoprotein cholesterol (HDL-C).

[14] = system: QT/QTc; assay: thorough QT/QTc (TQT) study (1002-022); format: in vivo, human; settings: ETC-1002 240 mg daily for 9 days
[15] = in-vitro and in-vivo genetic toxicology assays
[16] = system: major drug transporters; assay: in vitro drug transporter inhibition; format: in vitro ADME

mean t1/2 ([1]; human, in vivo): 20 to 33 h
Tmax ([1]; oral): 7 h
SMILES: CC(C)(CCCCCC(=O)CCCCCC(C)(C)C(=O)O)C(=O)O [ESP15228]
Cmax dose proportionality ([1]; human, in vivo): increase in proportion to increasing dose
plasma concentrations and PK parameters ([2]; after 12th daily 240-mg dose of ETC-1002 with single dose simvastatin 20 mg, pravastatin 40 mg or rosuvastatin 10 mg): consistent with those in previous monotherapy studies

SMILES: CC(C)(CCCCCC(O)CCCCCC(C)(C)C(=O)O)C(=O)O [ETC-1002, 8-hydroxy-2,2,14,14 tetramethylpentadecanedioic acid]
Cmax dose proportionality ([1]; human, in vivo): increase in proportion to increasing dose
Tmax ([1]; human, in vivo, oral, read-out: Tmax): < 4 h
half-life ([1]; human, in vivo, oral, read-out: mean t1/2): 900 to 1620 min
systemic exposure, AUCtau,ss, dose proportionality ([1]; up to 120 mg daily, linear from 140 to 220 mg daily doses): slightly more than dose-proportional increase
central nervous system, respiratory, or cardiovascular liabilities ([3]; oral, up to 12 months, mice, rats, monkeys): No significant central nervous system, respiratory, or cardiovascular liabilities have been identified
target organs in repeat-dose studies ([3]; rats and monkeys, changes reversible following cessation of treatment): liver and kidney
NOAEL at 12 months [4]: 60 mg/kg/day
LDL-C lowering ([5]; ETC-1002 in combination with atorvastatin 10 mg vs atorvastatin alone): incremental LDL-C lowering beyond atorvastatin alone
risks for patients identified in safety pharmacology [6]: did not identify any significant risks
food effect [7]: can be taken without regard to food
NOAEL at 6 months [8]: 30 mg/kg/day
LDL-C, placebo-adjusted LS means for percent change from baseline ([9]; 180 mg on top of stable statin therapy): ~22%
LDL-C, placebo-adjusted LS means for percent change from baseline ([9]; ETC-1002 180 mg monotherapy): approximately 32%
non-HDL-C, TC, LDL particle number and apoB ([9]; accompanying reduced LDL-C): corresponding reductions
effect on HDL-C and TGs ([9]; in vivo): generally neutral
deaths ([10]; ETC-1002 120 mg group, Study 1002-008, Study Day 98, considered possibly related to study drug): One patient died with cause unknown
frequency of TEAEs, SOC infections and infestations ([10]; human, in vivo): 11.6-25%
patients experiencing at least 1 TEAE ([10]; human, in vivo): 75.6%
dose-related trends in the frequency of TEAEs ([10]; in vivo): there did not appear to be any dose-related trends
dose-related trends in the frequency of myalgia ([10]; in vivo): no dose-related trends
muscle-related SAEs ([10]; in vivo): no muscle-related SAEs
other measures of safety including laboratory results ([10]; in vivo): no clinically significant trends
reports of rhabdomyolysis ([10]; in vivo): no reports
safety profile ([10]; in vivo): excellent safety profile
drug interaction ([11]; combination of ETC-1002 and Ortho-Novum 1/35 (combined oral contraceptive)): No drug interaction
drug interaction ([11]; combination of ETC-1002 and metformin): No drug interaction
inhibition or induction of major CYP enzymes [12]: neither an inhibitor nor inducer
LDL-C [13]: lowered
high-density lipoprotein cholesterol (HDL-C) [13]: increased
triglycerides (TGs) [13]: lowered
QT interval duration [14]: does not prolong
change in QTc [14]: no significant change
effect on heart rate and PR and QRS intervals [14]: no clinically significant effect
clastogenicity [15]: non-clastogenic
mutagenicity [15]: non-mutagenic
inhibition of major drug transporters [16]: does not appear to inhibit

SMILES: CC(C)c1c(C(=O)Nc2ccccc2O)c(-c2ccccc2)c(-c2ccc(F)cc2)n1CC[C@@H](O)C[C@@H](O)CC(=O)O [ortho-hydroxy atorvastatin]
higher exposure than atorvastatin alone ([5]; 10 mg atorvastatin plus 120 mg ETC-1002 daily vs 10 mg atorvastatin alone): approximately 60%
exposure versus atorvastatin alone ([5]; 10 mg atorvastatin plus ETC-1002 240 mg): higher exposure

exposure (AUC0-inf) increased ([2]; single dose simvastatin 20 mg with steady-state ETC-1002 240 mg vs simvastatin alone, healthy subjects): 29%
SMILES: CCC(C)(C)C(=O)O[C@H]1C[C@@H](C)C=C2C=C[C@H](C)[C@H](CC[C@@H]3C[C@@H](O)CC(=O)O3)[C@H]21 [simvastatin, reference compound]
